# Measured values reported in US9545387B2, “Composition and kit comprising piperazine derivatives and metformin, and use thereof in the treatment of diabetes” (METABOLYS, priority 2012, dated 2017).
# How the values were obtained:
# [1] = oral glucose tolerance test (OGTT) in normal Swiss mice fasting for 17 hours, additive effect with metformin; format: in vivo; conditions: compound 1 50 mg/kg per os, metformin 300 mg/kg per os
# Method: The anti-diabetic action of the compounds in Examples 1 and 2 were determined via oral route in normal Swiss mice fasting for 17 hours. […] The animals were housed for a minimum time of one week after delivery (ordered from Charles River France) up until the day of experimentation in an animal facility at a temperature regulated at 21-22° C. and subjected to a light cycle (from 9 h to 17 h) and dark cycle (from 19 h to 7 h). They were fed a maintenance diet: water and food were provided ? ad libitum ? . The animals were treated via oral route 1 hour before oral administration of a glucose load (oral glucose tolerance test—OGTT). Glycaemia was measured at various times before and after this glucose load. This glycaemia was measured using a glucometer (Lifescan OneTouch Ultra, Lifescan, Johnson and Johnson Company) and OneTouch Ultra glycaemia test strips. In the Tables below n represents the number of mice included in the study. • 1. […] The 2 compounds were administered successively one hour before the glucose load. All the groups were composed of 5 mice (metformin alone, compound 1 alone, metformin+compound 1, control group with the carrier alone). Blood samples were taken at 0, 30, 60, 90 and 120 minutes after the glucose load.
# [2] = tested on: liver cells of rats fasting for 48 h; conditions: rat liver cells; stated in words, no data shown; cited from earlier work
# [3] = oral glucose tolerance test (OGTT) in normal Swiss mice fasting for 17 hours, additive effect with metformin; format: in vivo; conditions: metformin 300 mg/kg per os; for Glycaemia, Time −60 mn / Glycaemia, Time 30 mn / Glycaemia, Time 60 mn / Glycaemia, Time 120 mn / Glycaemia, Time 0 mn / Glycaemia, Time 90 mn: OGTT; for Glycaemia, Time −60 mn: given 1 h before glucose load, time −60 min; for Glycaemia, Time 30 mn: time 30 min; for Glycaemia, Time 60 mn: time 60 min; for Glycaemia, Time 120 mn: time 120 min; for Glycaemia, Time 0 mn: time 0 min; for Glycaemia, Time 90 mn: time 90 min
# [4] = Table 1, compound 1 50 mg/kg per os
# [5] = Table 2, compound 2 50 mg/kg per os
# [6] = Table 3, compound 3 50 mg/kg per os
# [7] = Table 4, compound 4 50 mg/kg per os
smiles,measurement,setting,value
"CN(C)C(=N)N=C(N)N [Metformin, metformin]","Glycaemia, Time 0 mn","[1]; Table 1, OGTT, time 0 min",3.2 ± 0.3 mM/liter
same,"Glycaemia, Time 90 mn","[1]; Table 1, OGTT, time 90 min",7.7 ± 1.0 mM/liter
same,drop of glycaemia area under curve after glucose load,[1]; study 1,44.2%
same,effect on the production of 13CO2 from 2-13C-lactate,[2],reduces
same,effect on the synthesis of glucose,[2],reduces
same,"Glycaemia, Time −60 mn",[3]; [4],3.7 ± 0.3 mM/liter
same,"Glycaemia, Time 30 mn",[3]; [4],8.6 ± 0.5 mM/liter
same,"Glycaemia, Time 60 mn",[3]; [4],9.4 ± 0.8 mM/liter
same,"Glycaemia, Time 120 mn",[3]; [4],6.2 ± 0.8 mM/liter
same,"Glycaemia, Time −60 mn",[3]; [5],3.8 ± 0.1 mM/liter
same,"Glycaemia, Time 0 mn",[3]; [5],3.6 ± 0.3 mM/liter
same,"Glycaemia, Time 30 mn",[3]; [5],11.2 ± 0.3 mM/liter
same,"Glycaemia, Time 60 mn",[3]; [5],9.5 ± 0.4 mM/liter
same,"Glycaemia, Time 90 mn",[3]; [5],8.0 ± 1.3 mM/liter
same,"Glycaemia, Time 120 mn",[3]; [5],8.2 ± 0.7 mM/liter
same,"Glycaemia, Time −60 mn",[3]; [6],5.6 ± 0.3 mM/liter
same,"Glycaemia, Time 0 mn",[3]; [6],6.0 ± 0.3 mM/liter
same,"Glycaemia, Time 30 mn",[3]; [6],9.2 ± 0.8 mM/liter
same,"Glycaemia, Time 60 mn",[3]; [6],8.2 ± 0.4 mM/liter
same,"Glycaemia, Time 90 mn",[3]; [6],7.7 ± 0.2 mM/liter
same,"Glycaemia, Time 120 mn",[3]; [6],9.6 ± 0.8 mM/liter
same,"Glycaemia, Time −60 mn",[3]; [7],4.2 ± 0.3 mM/liter
same,"Glycaemia, Time 0 mn",[3]; [7],3.6 ± 0.3 mM/liter
same,"Glycaemia, Time 30 mn",[3]; [7],9.5 ± 0.6 mM/liter
same,"Glycaemia, Time 60 mn",[3]; [7],11.2 ± 1.8 mM/liter
same,"Glycaemia, Time 90 mn",[3]; [7],9.6 ± 0.9 mM/liter
same,"Glycaemia, Time 120 mn",[3]; [7],8.6 ± 0.7 mM/liter
same,drop of glycaemia area under curve after glucose load,"[3]; study 2, compound 2 50 mg/kg per os",38.7%
same,drop of glycaemia area under curve after glucose load,"[3]; study 3, compound 3 50 mg/kg per os",68.5%
same,drop of glycaemia area under curve after glucose load,"[3]; study 4, compound 4 50 mg/kg per os",54.3%
